Results from patent US11233200B2, “Condensed cyclic compound, composition including the same, and organic light-emitting device including the condensed cyclic compound” (Samsung Electronics Co., Ltd., priority 2018, dated 2022).

Experiments:
[1] = Measurement of triplet energy level; type: physicochemical; conditions: spin-coated film of about 50 nm from 3 weight % toluene solution; PL spectrum at 77 K, peak of shortest wavelength
Protocol: Compound 1 was dissolved in toluene to a concentration of 3 weight % to prepare a solution. The same applied to Compounds 3 and C1 to prepare solutions. The solutions were spin-coated at a rotational speed of 1,600 revolutions per minute (rpm) and dried on a hot plate at a temperature of 120° C. for 15 minutes to obtain films (samples) having a thickness (film thickness after dry) of about 50 nanometers (nm). The samples were cooled to a temperature of 77 Kelvins (K) (−196° C.) and photoluminescence (PL) spectrums were obtained. The triplet energy levels (electron volts, eV) were calculated at the peak values of the shortest wavelengths of the PL spectrums.

[2] = Measurement of solubility; type: physicochemical; conditions: methyl benzoate (solvent), room temperature, ultrasonic waves
Protocol: 50 milligrams (mg) of Compound 1 and 500 mg of methyl benzoate (solvent) were added to a colorless sample bottle, ultrasonic waves were irradiated thereon at room temperature for 5 minutes, and the presence or absence of Compound 1 was visually confirmed. […] When Compound 1 remains, a small amount of a solvent was added thereto, the irradiation of ultrasonic waves was repeated, and an amount of the solvent was measured until Compound 1 was completely dissolved. The solubility was measured from the amount of the solvent finally used. The solubility values of Compounds 3 and C1 were calculated in the same manner.

Row | Triplet energy level [1] [eV] | Solubility [2] [weight %] | Compound
1 | 2.81 | 2 | c1ccc(-c2cccc(-c3cccc(-c4ccc5c(c4)C4(c6ccccc6-5)c5ccccc5-c5ccc(-c6cccc(-c7cccc(-c8ccccc8)c7)c6)cc54)c3)c2)cc1 [Compound C1]
2 | 2.96 | 9 | c1ccc(-c2cc(-c3ccccc3)cc(-c3cccc(-c4cccc5c4-c4ccccc4C54c5ccccc5-c5c(-c6cccc(-c7cc(-c8ccccc8)cc(-c8ccccc8)c7)c6)cccc54)c3)c2)cc1 [Compound 3]
3 | 2.96 | 7 | c1ccc(-c2cccc(-c3cccc(-c4cccc5c4-c4ccccc4C54c5ccccc5-c5c(-c6cccc(-c7cccc(-c8ccccc8)c7)c6)cccc54)c3)c2)cc1 [Compound 1]
4 | 2.91 | <1 | c1ccc(-c2nc(-c3ccccc3)nc(-c3cccc(-c4cccc(-c5cccc6c5-c5ccccc5C65c6ccccc6-c6c(-c7ccccc7)cccc65)c4)c3)n2)cc1 (centres unmarked) [Compound C2]
